Experimental data from PMC6874667, “A conserved odorant binding protein is required for essential amino acid detection in Drosophila” (Communications Biology, 2019).
Structures can show the parent of a compound that is named as a salt.

Key:
OBP19b [1] = target: T1, OBP19b (Drosophila melanogaster, UniProt Q9VR95); assay: biochemical; set-up: competitive NPN probe displacement from recombinant OBP19b, fluorescence 340/415 nm, single concentration, per cent fluorescence displacement; conditions: NPN displacement; buffer blank 13.4 % not subtracted
T1 construct: mature OBP19b without its native signal peptide
T1 sequence (Q9VR95 34-163): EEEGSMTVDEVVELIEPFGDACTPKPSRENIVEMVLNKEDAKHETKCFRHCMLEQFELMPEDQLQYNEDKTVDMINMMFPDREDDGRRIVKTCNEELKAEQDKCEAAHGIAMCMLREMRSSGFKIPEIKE
Description: To measure the affinity of OBP19b to ligands, a competitive screening assay was performed at 23 °C using a 96-well microplate format and a Victor3 V microplate reader (PerkinElmer Life Sciences) with 25 and 5 nm slits for excitation and emission, respectively. The excitation wavelength was 340 nm, and the fluorescence emission intensity was recorded at 415 nm. First, a wide screening array involving various ligand compounds was performed. Each well contained 200 µL of 2 µM OBP19b with 4 µM NPN dissolved in 50 mM sodium phosphate buffer at pH 7.5. Fatty acids and bitter compounds were tested in the µM range, whereas sugars, amino acids, vitamins, acids, amines, and isothiocyanate compounds were tested in the mM range. All tested compounds were dissolved in 10% methanol except amino acids, which were dissolved in 50 mM sodium phosphate buffer at pH 7.5. Based on the results of the first screen, the 20 L-amino acids, certain D-amino acids and three nonproteinogenic amino acids were tested by adding 100 µL of a 30 mM ligand stock solution to the microplate wells to obtain a final concentration of 15 mM, and then the solution was mixed. Significant differences using one-way analysis of variance (ANOVA) followed by Dunnett’s test were observed compared to the buffer (***p < 0.001; **p < 0.01). The competitive-binding curves were identified by titration of OBP19b/NPN complex with aliquots of 50 mM ligand to final concentration ranging from 0 to 20 mM. The dissociation constants (Kdapp) of each compound were calculated according to the corresponding IC50 values (the concentration of ligands required to halve the initial fluorescence value of NPN) using the following equation: Kdapp = [IC50]/(1 + […]/KNPN), where [NPN] is the free concentration of NPN. The reported Kdapp values are the average of three measurements performed on three independently experiments.  Fig. 2 Binding properties of OBP19b with a competitive fluorescent assay. The fluorescent displacement of the fluorescent probe NPN by various taste compounds was evaluated by adding aliquots of 50 mM ligand (dissolved in 50 mM sodium phosphate buffer at pH 7.5) to final concentration ranging from 0 to 20 mM. a Fatty acid esters and bitter compounds were tested at a final concentration of 40 µM. b Amino acids, vitamins, acids, amines, trigeminal (isothiocyanate), and sugars compounds were tested at a 15 mM final concentration. c Fluorescent displacement of 20 L-amino acids, including L-phenylalanine (L-Phe: magenta color), L-glutamine (L-Gln: green) and L-alanine (L-Ala: cyan); three nonproteinogenic amino acids L-ornithine (L-Orn), L-canavanine (L-Can), L-citrulline (L-Cit); and three D-amino acids (D-phenylalanine: orange, D-glutamine: blue, and D-alanine: gray). Dots indicate essential amino acids. Statistical differences were determined using one-way ANOVA followed by Dunnett’s test (***p < 0.001; **p < 0.01). d Competitive-binding curves of L-Phe and L-Gln (showing the lowest Kdapp), L-Ala (negative control), and their three corresponding D-isomers. Data values represent the mean ± SEM.

OBP19b [2] = target: T1, OBP19b; assay: direct fluorescence titration with fluorescent probe; type: binding
OBP19b [3] = target: T1, OBP19b; assay: competitive NPN fluorescence displacement, single dose […]; type: binding

SMILES | inhibition at 15000 µM (OBP19b [1]) | also measured
NC(=O)CC[C@@H](N)C(=O)O [D-glutamine] | 22.6% | 
N[C@@H](CCC(=O)O)C(=O)O [L-glutamic acid] | -0.061% | 
C[C@@H](N)C(=O)O [D-alanine] | 23.5% | 
c1ccc(Nc2cccc3ccccc23)cc1 [NPN, N-phenyl-1-naphthylamine] |  | Kd (OBP19b [2]): 4.1 ± 0.9 µM
N[C@@H](CS)C(=O)O [L-cysteine] | -14.4% | 
COc1ccc2cc3[n+](cc2c1OC)CCc1cc2c(cc1-3)OCO2 [berberine] |  | competitive NPN fluorescence displacement, single dose 40 μM (OBP19b [3]): The highest level of fluorescence displacement was induced by papaverine, berberine, 2-phenylethyl isothiocyanate
NC(=O)C[C@H](N)C(=O)O [L-asparagine] | 41.2% | 
NCC(=O)O [Glycine] | 31.6% | 
CC[C@H](C)[C@H](N)C(=O)O [L-isoleucine] | 22.8% | 
NC(=O)CC[C@H](N)C(=O)O [L-Gln, L-glutamine] | 40.7% | 
COc1ccc(Cc2nccc3cc(OC)c(OC)cc23)cc1OC [papaverine] |  | competitive NPN fluorescence displacement, single dose 40 μM (OBP19b [3]): The highest level of fluorescence displacement was induced by papaverine, berberine, 2-phenylethyl isothiocyanate
NCCCC[C@H](N)C(=O)O [L-lysine] | 20.2% | 
N[C@@H](CC(=O)O)C(=O)O [L-aspartic acid] | 43.4% | 
N[C@@H](Cc1ccccc1)C(=O)O [L-Phe, L-phenylalanine] | 44% | 
N=C(N)NCCC[C@H](N)C(=O)O [L-arginine] | 40.5% | 
N[C@@H](Cc1c[nH]cn1)C(=O)O [L-histidine] | 7.44% | 
N[C@H](Cc1ccccc1)C(=O)O [D-phenylalanine] | 28.3% | 
NC(N)=NOCC[C@H](N)C(=O)O [L-canavanine sulfate salt] | 22.2% | 
C[C@H](N)C(=O)O [L-alanine] | 27.2% | 

The next lines start with results.

inhibition at 15000 µM (OBP19b [1]) | SMILES | also measured
37.3% | CSCC[C@H](N)C(=O)O [L-methionine] | 
17.8% | C[C@@H](O)[C@H](N)C(=O)O [L-threonine] | 
-122% | N[C@@H](Cc1ccc(O)cc1)C(=O)O [L-tyrosine] | 
36.2% | N[C@@H](Cc1c[nH]c2ccccc12)C(=O)O [L-tryptophan] | 
46.2% | N[C@@H](CO)C(=O)O [L-serine] | 
20.1% | O=C(O)[C@@H]1CCCN1 [L-proline] | 
22.8% | CC(C)C[C@H](N)C(=O)O [L-leucine] | 
25.1% | NCCC[C@H](N)C(=O)O [L-ornithine dihydro chloride] | 
16.2% | CC(C)[C@H](N)C(=O)O [L-valine] | 
